Test results: patent US4128638A, “Nona- and deca-peptide amide derivatives demonstrating high ovulation inducing activity” (ICI Australia Limited, priority 1975, dated 1978)
Where a SMILES comes first, the peptide text is derived from it. [ ]: non-standard residue; d: D form. pGlu = O=C1CC[C@@H](C(=O)O)N1

Key:
[1] = system: androgen-sterilized, constant-oestrous rats; assay: Ovulation induction in androgen-sterilized, constant-oestrous rats; assay type: in vivo; conditions: intravenous dose/rat 0.25 μg
Description: This activity is exemplified in the table below:

[2] = system: LH release from the pituitary gland of ovariectomized ewes; assay: Bioassay for LH release in ovariectomized ewes (plasma LH by radioimmunoassay); assay type: in vivo; conditions: intravenous injection
Experimental: Each ewe was bled twice by jugular venipuncture before administration of the analogue, to establish basal levels of LH in plasma. Following intravenous injection of the appropriate analogue dissolved in saline solution (1 ml), blood samples were collected at intervals over the next three hours, centrifuged and subjected to radioimmunoassay for LH.

CC[C@H](C)[C@H](NC(=O)[C@@H](C)NC(=O)[C@H](Cc1ccc(O)cc1)NC(=O)[C@H](CO)NC(=O)[C@H](Cc1c[nH]c2ccccc12)NC(=O)[C@H](Cc1c[nH]cn1)NC(=O)[C@@H]1CCC(=O)N1)C(=O)N[C@@H](CCCNC(=N)N)C(=O)N1CCC[C@H]1C(=O)NCC(N)=O [D-Ala^6 -Ile^7 -LHRH, L-Pyroglutamyl-L-histidyl-L-tryptophanyl-L-seryl-L-tyrosyl-D-alanyl-L-isoleucyl-L-arginyl-L-prolyl-glycinamide] ([pGlu]HWSY[dA]IRPG-NH2)
Ovulating rats/group [1]: 3/3

CC(C)[C@H](NC(=O)[C@@H](C)NC(=O)[C@H](Cc1ccc(O)cc1)NC(=O)[C@H](CO)NC(=O)[C@H](Cc1c[nH]c2ccccc12)NC(=O)[C@H](Cc1c[nH]cn1)NC(=O)[C@@H]1CCC(=O)N1)C(=O)N[C@@H](CCCNC(=N)N)C(=O)N1CCC[C@H]1C(=O)NCC(N)=O [D-Ala^6 -Val^7 -LHRH, L-pyroglutamyl-L-histidyl-L-tryptophanyl-L-seryl-L-tyrosyl-D-alanyl-L-valyl-L-arginyl-L-prolylglycinamide] ([pGlu]HWSY[dA]VRPG-NH2)
Ovulating rats/group [1]: 3/3

CC(C)C[C@H](NC(=O)CCNC(=O)[C@H](Cc1ccc(O)cc1)NC(=O)[C@H](CO)NC(=O)[C@H](Cc1c[nH]c2ccccc12)NC(=O)[C@H](Cc1c[nH]cn1)NC(=O)[C@@H]1CCC(=O)N1)C(=O)N[C@@H](CCCNC(=N)N)C(=O)N1CCC[C@H]1C(=O)NCC(N)=O [Example 1, L-Pyroglutamyl-L-histidyl-L-tryptophanyl-L-seryl-L-tyrosyl-β-alanyl-L- leucyl-L-arginyl-L-prolyl-glycinamide]
P* (maximal release of LH by the LHRH analogue at a given dose expressed as a percentage of the LH release by LHRH at the same dose) ([2]; dose 2.5 μg): 97%
P* (maximal release of LH by the LHRH analogue at a given dose expressed as a percentage of the LH release by LHRH at the same dose) ([2]; dose 25 μg): 108%

CC(C)C[C@H](NC(=O)CNC(=O)[C@H](Cc1ccc(O)cc1)NC(=O)[C@H](CO)NC(=O)[C@H](Cc1c[nH]c2ccccc12)NC(=O)[C@H](Cc1c[nH]cn1)NC(=O)[C@@H]1CCC(=O)N1)C(=O)N[C@@H](CCCNC(=N)N)C(=O)N1CCC[C@H]1C(=O)NCCC(N)=O [Example 2, L-Pyroglutamyl-L-histidyl-L-tryptophanyl-L-seryl-L-tyrosylglycyl-L-leucyl-L-arginyl-L-prolyl-β-alaninamide]
P* (maximal release of LH by the LHRH analogue at a given dose expressed as a percentage of the LH release by LHRH at the same dose) ([2]; dose 5 μg): 12%
P* (maximal release of LH by the LHRH analogue at a given dose expressed as a percentage of the LH release by LHRH at the same dose) ([2]; dose 50 μg): 75%

CC(C)C[C@H](NC(=O)CNC(=O)[C@H](Cc1ccc(O)cc1)NC(=O)[C@H](CO)NC(=O)[C@H](Cc1c[nH]c2ccccc12)NC(=O)[C@H](Cc1c[nH]cn1)NC(=O)[C@@H]1CCC(=O)N1)C(=O)N[C@@H](CCCNC(=N)N)C(=O)N1CCC[C@H]1C(=O)N(C)CC(N)=O [Example 3, L-Pyroglutamyl-L-histidyl-L-tryptophanyl-L-seryl-L-tyrosylglycyl-L-leucyl-L-arginyl-L-prolysarcosinamide]
P* (maximal release of LH by the LHRH analogue at a given dose expressed as a percentage of the LH release by LHRH at the same dose) ([2]; dose 5 μg): 70%
P* (maximal release of LH by the LHRH analogue at a given dose expressed as a percentage of the LH release by LHRH at the same dose) ([2]; dose 50 μg): 45%

CNC(=O)[C@@H]1CCCN1C(=O)[C@H](CCCNC(=N)N)NC(=O)[C@H](CC(C)C)NC(=O)CCNC(=O)[C@H](Cc1ccc(O)cc1)NC(=O)[C@H](CO)NC(=O)[C@H](Cc1c[nH]c2ccccc12)NC(=O)[C@H](Cc1c[nH]cn1)NC(=O)[C@@H]1CCC(=O)N1 [β-Ala^6 -des-Gly^10 -LHRH methylamide, L-Pyroglutamyl-L-histidyl-L-tryptophanyl-L-seryl-L-tyrosyl-β-alanyl-L- leucyl-L-arginyl-L-proline N-methylamide]
Ovulating rats/group [1]: 3/3

CCCNC(=O)[C@@H]1CCCN1C(=O)[C@H](CCCNC(=N)N)NC(=O)[C@H](CC(C)C)NC(=O)CCNC(=O)[C@H](Cc1ccc(O)cc1)NC(=O)[C@H](CO)NC(=O)[C@H](Cc1c[nH]c2ccccc12)NC(=O)[C@H](Cc1c[nH]cn1)NC(=O)[C@@H]1CCC(=O)N1 [β-Ala^6 -des-Gly^10 -LHRH n-propylamide, L-pyroglutamyl-L-histidyl-L-tryptophanyl-L-seryl-L-tyrosyl-β-alanyl-L- leucyl-L-arginyl-L-proline N-n-propylamide]
Ovulating rats/group [1]: 5/6

CC(C)C[C@H](NC(=O)CCNC(=O)[C@H](Cc1ccc(O)cc1)NC(=O)[C@H](CO)NC(=O)[C@H](Cc1c[nH]c2ccccc12)NC(=O)[C@H](Cc1c[nH]cn1)NC(=O)[C@@H]1CCC(=O)N1)C(=O)N[C@@H](CCCNC(=N)N)C(=O)N1CCC[C@H]1C(=O)N1CCCC1 [β-Ala^6 -des-Gly^10 -LHRH pyrrolidide, L-Pyroglutamyl-L-histidyl-L-tryptophanyl-L-seryl-L-tyrosyl-β-alanyl-L- leucyl-L-arginyl-L-proline pyrrolidide]
Ovulating rats/group [1]: 3/3

CCNC(=O)[C@@H]1CCCN1C(=O)[C@H](CCCNC(=N)N)NC(=O)[C@H](CC(C)C)NC(=O)CCNC(=O)[C@H](Cc1ccc(O)cc1)NC(=O)[C@H](CO)NC(=O)[C@H](Cc1c[nH]c2ccccc12)NC(=O)[C@H](Cc1c[nH]cn1)NC(=O)[C@@H]1CCC(=O)N1 [β-Ala^6 des-Gly^10 -FHRH ethylamide, L-Pyroglutamyl-L-histidyl-L-tryptophanyl-L-seryl-L-tyrosyl-β-alanyl-L- leucyl-L-arginyl-L-proline N-ethylamide]
Ovulating rats/group [1]: 3/3
